System: NCI-H211 complex spheroid viability
Experiment: Anticancer human tumor NCI-H211 cell line growth inhibition [LSD1];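 note: luminescent viability read after seven days of drug exposure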;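 for viability, T/C: 100% = DMSO vehicle control viability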
Settings: for IC50: curve of first compound; for viability, T/C: stronger effect = lower value
In short: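 Drug combinations with the LSD1 inhibitor iadademstat tested on tumor cells co-cultured as spheroids with endothelial cells and mesenchymal stem cells. Concentrations descended in half-log increments from clinical Cmax or 10 microM.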

[1] = second compound 0.1 µM, first compound 0.0316 µM
[2] = second compound 0.1 µM, first compound 0.1 µM
[3] = second compound 0.1 µM, first compound 0.316 µM
[4] = second compound 0.1 µM, first compound 1 µM
[5] = second compound 0.1 µM, first compound 3.16 µM
[6] = second compound 0.1 µM, first compound 10 µM
[7] = second compound 0.316 µM, first compound 0.0316 µM
[8] = second compound 0.316 µM, first compound 0.1 µM
[9] = second compound 0.316 µM, first compound 0.316 µM
[10] = second compound 0.316 µM, first compound 1 µM
[11] = second compound 0.316 µM, first compound 3.16 µM
[12] = second compound 0.316 µM, first compound 10 µM
[13] = second compound 1 µM, first compound 0.0316 µM
[14] = second compound 1 µM, first compound 0.1 µM
[15] = second compound 1 µM, first compound 0.316 µM
[16] = second compound 1 µM, first compound 1 µM
[17] = second compound 1 µM, first compound 3.16 µM
[18] = second compound 1 µM, first compound 10 µM
[19] = second compound 3.16 µM, first compound 0.0316 µM
[20] = second compound 3.16 µM, first compound 0.1 µM
[21] = second compound 3.16 µM, first compound 0.316 µM
[22] = second compound 3.16 µM, first compound 1 µM
[23] = second compound 3.16 µM, first compound 3.16 µM
[24] = second compound 3.16 µM, first compound 10 µM
[25] = second compound 10 µM, first compound 0.0316 µM
[26] = second compound 10 µM, first compound 0.1 µM
[27] = second compound 10 µM, first compound 0.316 µM
[28] = second compound 10 µM, first compound 1 µM
[29] = second compound 10 µM, first compound 3.16 µM
[30] = second compound 10 µM, first compound 10 µM

Structure (SMILES)	IC50 (second compound 0.1 µM)	IC50 (second compound 0.316 µM)	IC50 (second compound 1 µM)	IC50 (second compound 3.16 µM)	IC50 (second compound 10 µM)	viability, T/C [1]	viability, T/C [2]	viability, T/C [3]	viability, T/C [4]	viability, T/C [5]	viability, T/C [6]	viability, T/C [7]	viability, T/C [8]	viability, T/C [9]	viability, T/C [10]	viability, T/C [11]	viability, T/C [12]	viability, T/C [13]	viability, T/C [14]	viability, T/C [15]	also measured
CC(C)c1c(-c2ccccc2)nc2c(C#N)c[nH]n2c1=O + NC1CC1c1ccc(-c2cccc(O)c2)cc1	6.12 µM	6.66 µM	2.93 µM	6.42 µM	3.8 µM	86.7%	66.5%	70.5%	66%	54.9%	45.3%	73.7%	75.5%	69.9%	61.9%	63.1%	43.9%	74.3%	64.2%	63.4%	viability, T/C [16]: 69.8%; viability, T/C [17]: 48.7%; viability, T/C [18]: 37.5%; viability, T/C [19]: 83.6%; viability, T/C [20]: 57.1%; viability, T/C [21]: 74.8%; viability, T/C [22]: 63.5%; viability, T/C [23]: 59.6%; viability, T/C [24]: 44.3%; viability, T/C [25]: 52.1%; viability, T/C [26]: 62.4%; viability, T/C [27]: 64.5%; viability, T/C [28]: 58.8%; viability, T/C [29]: 47.2%; viability, T/C [30]: 41.7%
COc1ccc([C@@H](O)c2cc(-c3ncnc4cc(N5CCOCC5)ccc34)c(F)cc2Cl)nn1 + NC1CC1c1ccc(-c2cccc(O)c2)cc1	4.47 µM	4.05 µM	3.57 µM	2.49 µM	< 0.0316 µM	62%	63.6%	75%	89.8%	65.8%	13.6%	59.7%	52.7%	62.2%	73.5%	59.9%	12.2%	67.3%	67%	72.2%	viability, T/C [16]: 76.8%; viability, T/C [17]: 54.8%; viability, T/C [18]: 9.71%; viability, T/C [19]: 54.5%; viability, T/C [20]: 53.1%; viability, T/C [21]: 59%; viability, T/C [22]: 60.4%; viability, T/C [23]: 48.2%; viability, T/C [24]: 8.23%; viability, T/C [25]: 51.2%; viability, T/C [26]: 38.8%; viability, T/C [27]: 51.6%; viability, T/C [28]: 48%; viability, T/C [29]: 36.7%; viability, T/C [30]: 3.23%
